# Target: DRB1*1501 (Homo sapiens, UniProt P01903+P01911)
# Test: biochemical
# Format: binding
smiles,measurement,value
CC(C)C[C@H](NC(=O)[C@H](Cc1ccc(O)cc1)NC(=O)[C@H](C)NC(=O)[C@H](CCCNC(=N)N)NC(=O)[C@H](CC(C)C)NC(=O)[C@H](CCC(N)=O)NC(=O)[C@H](CCC(=O)O)NC(=O)[C@H](C)NC(=O)[C@@H](N)CCC(=O)O)C(=O)N[C@@H](CC(=O)O)C(=O)NCC(=O)N[C@H](C(=O)NCC(=O)N[C@H](C(=O)N[C@@H](CCC(=O)O)C(=O)O)C(C)C)[C@@H](C)O [A3 152–166],IC50,48 nM
